Among the data in PubChem BioAssay (NCI) are TGI values, retold here.

Test systems include M14 melanoma; A498 renal; OVCAR-4 ovarian; MCF7 breast; HOP-92 NSCLC; LOX IMVI melanoma; SW-620 colon; HT29 colon; HS 578T breast; KM12 colon; UACC-257 melanoma; OVCAR-3 ovarian; SK-OV-3 ovarian; A549 NSCLC; SNB-75 CNS; HCC-2998 colon; SF-539 CNS; HL-60(TB) leukemia.
Common to all, as to assay: inhibition of tumour cell growth, NCI panel, 48 h

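Where inhibition never reached the appropriate level, the endpoint shown equals the highest concentration tested. Otherwise, values were interpolated linearly from a five-concentration, 48-hour dose response in 96-well plates. TGI is the concentration that stops growth completely.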 Bounds are passed on as bounds.

Consider `c1ccc([P+](CCCCCC[P+](c2ccccc2)(c2ccccc2)c2ccccc2)(c2ccccc2)c2ccccc2)cc1`, for which the TGI in the assay with M14 melanoma was above 100 µM; with A498 renal, above 100 µM; in the assay with OVCAR-4 ovarian, above 100 µM; in the assay with MCF7 breast, 74.1 µM; with HOP-92 NSCLC, 66.7 µM; in the assay on LOX IMVI melanoma, 38.6 µM. For the same molecule, the TGI with SW-620 colon is above 100 µM; in the assay on HT29 colon, above 100 µM; in the assay with HS 578T breast it was above 100 µM; in the assay on KM12 colon, 63.2 µM; with UACC-257 melanoma, 8.64 µM; with OVCAR-3 ovarian, above 100 µM. Further, the TGI is above 100 µM in the assay with SK-OV-3 ovarian; above 100 µM with A549 NSCLC; above 100 µM with SNB-75 CNS; above 100 µM in the assay with HCC-2998 colon; 39 µM in the assay on SF-539 CNS; 67 µM in the assay on HL-60(TB) leukemia.

With `CCOC(=O)C(Cc1ccc(N(CCCl)CCCl)cc1)NC(=O)CCCN1C(=O)CN=C(c2ccccc2)c2cc(Cl)ccc21` (centres undefined), the TGI with M14 melanoma is 22.3 µM; in the assay on A498 renal, above 100 µM; with OVCAR-4 ovarian it was 98.3 µM; with MCF7 breast it was above 100 µM; in the assay with HOP-92 NSCLC, 8.85 µM; in the assay with LOX IMVI melanoma it was 8.99 µM. Moreover, the TGI was above 62.3 µM with SW-620 colon; above 100 µM with HT29 colon; 52 µM with HS 578T breast; above 100 µM in the assay on KM12 colon; 8.31 µM with UACC-257 melanoma; 5.32 µM in the assay with OVCAR-3 ovarian. In addition, the TGI is above 100 µM in the assay on SK-OV-3 ovarian; above 100 µM in the assay with A549 NSCLC; 51.3 µM in the assay on SNB-75 CNS; above 49.7 µM in the assay with HCC-2998 colon; 16.3 µM with SF-539 CNS; 7.51 µM with HL-60(TB) leukemia.

Take `O=Nc1c(O)cc(Nc2cccnc2)c2ccccc12`: the TGI was above 100 µM with M14 melanoma; above 100 µM with A498 renal; above 100 µM with OVCAR-4 ovarian; above 100 µM in the assay on MCF7 breast; 68 µM in the assay on HOP-92 NSCLC; above 100 µM in the assay on LOX IMVI melanoma. Besides, the TGI is 45.5 µM in the assay with SW-620 colon; 50.9 µM with HT29 colon; above 100 µM in the assay on HS 578T breast; 90.6 µM with KM12 colon; above 100 µM with UACC-257 melanoma; 11.8 µM in the assay with OVCAR-3 ovarian. The TGI in the assay with SK-OV-3 ovarian was above 100 µM; with A549 NSCLC, above 100 µM; with SNB-75 CNS it was above 100 µM; in the assay with HCC-2998 colon, 95.4 µM; in the assay with SF-539 CNS, above 100 µM; in the assay with HL-60(TB) leukemia it was 5.65 µM.
